In patent US4459290A, “C-23-Modified derivatives of OMT, pharmaceutical compositions and method of use” (priority 1982, dated 1984):
Converted amounts (≈) assume the structure as drawn. Like-named read-outs stand apart in the source and are kept apart here.

Tests used:
Escherichia coli EC14 = assay: MIC, standard agar-dilution assay (Table V); assay type: cell-based; conditions: Escherichia coli; E. coli EC14; agar dilution; read-out: MIC
Procedure, shortened: (§1)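 Growth inhibition in liquid medium, in a routine microtiter broth-dilution series, gave the MIC against staphylococci and pasteurellae; the gram-negative enteric strain was tested by conventional agar dilution instead.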

Escherichia coli N10 = assay: MIC, standard agar-dilution assay (Table V); assay type: cell-based; conditions: Escherichia coli; E. coli N10; agar dilution; read-out: MIC
Procedure, shortened: as §1

[1] = tested on: Klebsiella pneumoniae KAE; assay: MIC, standard agar-dilution assay (Table V); assay type: cell-based; conditions: Klebsiella pneumoniae; K. pneumoniae KAE; agar dilution; read-out: MIC
Procedure, shortened: as §1

[2] = tested on: Klebsiella pneumoniae X26; assay: MIC, standard agar-dilution assay (Table V); assay type: cell-based; conditions: Klebsiella pneumoniae; K. pneumoniae X26; agar dilution; read-out: MIC
Experimental: (§2) Especially noteworthy is the improved activity against gram-negative bacteria for several derivatives when compared to the activity of OMT. […] The MIC's in Tables V and VI were determined by standard agar-dilution assays. The MIC's in Table VII were obtained using a conventional broth-dilution microtiter test.

Shigella sonnei N9 = assay: MIC, standard agar-dilution assay (Table V); assay type: cell-based
Procedure, shortened: as §1

[3] = tested on: Staphylococcus aureus S13E; assay: MIC, standard agar-dilution assay (Table V); assay type: cell-based; conditions: Staphylococcus aureus, S13E
Experimental: as §2

[4] = tested on: Staphylococcus aureus V41; assay: MIC, standard agar-dilution assay (Table V); assay type: cell-based; conditions: Staphylococcus aureus, V41
Experimental: as §2

[5] = tested on: Staphylococcus aureus X1.1; assay: MIC, standard agar-dilution assay (Table V); assay type: cell-based; conditions: Staphylococcus aureus; S. aureus X1.1; agar dilution; read-out: MIC
Experimental: as §2

[6] = tested on: Staphylococcus aureus X400; assay: MIC, standard agar-dilution assay (Table V); assay type: cell-based; conditions: Staphylococcus aureus, X400
Experimental: as §2

[7] = tested on: Staphylococcus epidermidis EPI1; assay: MIC, standard agar-dilution assay (Table V); assay type: cell-based; conditions: Staphylococcus epidermidis; S. epidermidis EPI1; agar dilution; read-out: MIC
Experimental: as §2

[8] = tested on: Staphylococcus epidermidis EPI2; assay: MIC, standard agar-dilution assay (Table V); assay type: cell-based; conditions: Staphylococcus epidermidis, EPI2
Experimental: as §2

Streptococcus Group 9960 = assay: MIC, standard agar-dilution assay (Table V); assay type: cell-based; conditions: GROUP9960; Streptococcus Group 9960; agar dilution; read-out: MIC
Experimental: as §2

[9] = tested on: Streptococcus Group D X66; assay: MIC, standard agar-dilution assay (Table V); assay type: cell-based
Experimental: as §2

[10] = tested on: Haemophilus influenzae Holt; assay: MIC, standard agar-dilution assay (Table V); assay type: cell-based; conditions: Haemophilus influenzae
Experimental: (§3) The MIC's in Tables V and VI were determined by standard agar-dilution assays. The MIC's in Table VII were obtained using a conventional broth-dilution microtiter test.

[11] = tested on: Haemophilus influenzae R252; assay: MIC, standard agar-dilution assay (Table V); assay type: cell-based; conditions: Haemophilus influenzae, R252
Experimental: as §3

[12] = tested on: Streptococcus pyogenes C203; assay: MIC, standard agar-dilution assay (Table V); assay type: cell-based; conditions: Streptococcus pyogenes, C203
Experimental: as §3

[13] = tested on: Streptococcus pneumoniae Park I; assay: microbe, parasite or virus in culture; assay type: cell-based; conditions: Streptococcus pneumoniae; read-out: MIC
Experimental: as §2

[14] = tested on: Enterobacter aerogenes C32; assay: MIC, standard agar-dilution assay (Table VI); assay type: cell-based; conditions: Klebsiella aerogenes, C32
Experimental: as §2

Proteus rettgeri C24 = assay: MIC, standard agar-dilution assay (Table VI); assay type: cell-based; conditions: Providencia rettgeri, P. rettgeri C24
Experimental: as §2

Proteus rettgeri PR7 = assay: MIC, standard agar-dilution assay (Table VI); assay type: cell-based; conditions: Providencia rettgeri; P. rettgeri PR7; agar dilution; read-out: MIC
Experimental: as §2

[15] = tested on: Salmonella heidelberg X514; assay: MIC, standard agar-dilution assay (Table VI); assay type: cell-based; conditions: Salmonella enterica, X514
Experimental: as §2

Mycoplasma gallisepticum = assay: MIC, broth-dilution microtiter test (Table VII); assay type: cell-based; conditions: Mycoplasmoides gallisepticum; M. gallisepticum; broth-dilution microtiter; read-out: MIC
Experimental: as §2

Mycoplasma hyorhinis = assay: MIC, broth-dilution microtiter test (Table VII); assay type: cell-based; conditions: M. hyorhinis; broth-dilution microtiter; read-out: MIC
Experimental: as §2

Mycoplasma synoviae = assay: MIC, broth-dilution microtiter test (Table VII); assay type: cell-based; conditions: Mycoplasmopsis synoviae; M. synoviae; broth-dilution microtiter; read-out: MIC
Experimental: as §2

[16] = tested on: Pasteurella hemolytica 22C; assay: MIC, broth-dilution microtiter test (Table VII); assay type: cell-based; conditions: Pasteurella, P. hemolytica 22C, read-out: MIC
Procedure, shortened: as §1

[17] = tested on: Pasteurella hemolytica 23C; assay: MIC, broth-dilution microtiter test (Table VII); assay type: cell-based; conditions: Pasteurella, P. hemolytica 23C, read-out: MIC
Procedure, shortened: as §1

[18] = tested on: Pasteurella hemolytica 41D; assay: MIC, broth-dilution microtiter test (Table VII); assay type: cell-based; conditions: Pasteurella, P. hemolytica 41D, read-out: MIC
Procedure, shortened: as §1

[19] = tested on: Pasteurella multocida 17E; assay: MIC, broth-dilution microtiter test (Table VII); assay type: cell-based; conditions: Pasteurella multocida; P. multocida 17E, bovine isolate; broth-dilution microtiter; read-out: MIC
Procedure, shortened: (§4)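 Broth microdilution, run as a conventional microtiter test, supplied MICs for the gram-positive S. aureus and the Pasteurella isolates. Enterobacter data instead rest on a standard agar-dilution procedure.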

[20] = tested on: Pasteurella multocida 22A; assay: MIC, broth-dilution microtiter test (Table VII); assay type: cell-based; conditions: Pasteurella multocida; P. multocida 22A; broth-dilution microtiter; read-out: MIC
Procedure, shortened: as §4

[21] = tested on: Pasteurella multocida 40G; assay: MIC, broth-dilution microtiter test (Table VII); assay type: cell-based; conditions: Pasteurella multocida; P. multocida 40G; broth-dilution microtiter; read-out: MIC
Procedure, shortened: as §4

[22] = tested on: Pasteurella multocida 60A; assay: MIC, broth-dilution microtiter test (Table VII); assay type: cell-based; conditions: Pasteurella multocida; P. multocida 60A, avian isolate; broth-dilution microtiter; read-out: MIC
Procedure, shortened: as §4

[23] = tested on: Pasteurella multocida 68C; assay: MIC, broth-dilution microtiter test (Table VII); assay type: cell-based; conditions: Pasteurella multocida; P. multocida 68C; broth-dilution microtiter; read-out: MIC
Procedure, shortened: as §4

Staphylococcus aureus = assay: MIC, broth-dilution microtiter test (Table VII); assay type: cell-based; conditions: Staphylococcus aureus; S. aureus; broth-dilution microtiter; read-out: MIC
Procedure, shortened: as §4

Streptococcus sp. 80 = assay: MIC, broth-dilution microtiter test (Table VII); assay type: cell-based; conditions: Streptococcus sp. 80; broth-dilution microtiter; read-out: MIC
Experimental: as §2

[24] = tested on: Streptococcus pyogenes C203; assay: ED50 in mice experimentally infected with S. pyogenes C203 (Table VIII); assay type: in vivo
Experimental: The C-23 modified derivatives of OMT of this invention have shown in vivo antimicrobial activity against experimental infections. When two doses of test compound were administered to mice experimentally infected with a gram-positive bacterium, S. pyogenes C203, the activity observed was measured as an ED50 value [effective dose in mg/kg to protect 50% of the test animals: see Warren Wick, et al., J. Bacteriol. 81, 233-235 (1961)].

With `CCC1OC(=O)CC(O)C(C)C(OC2OC(C)C(O)C(N(C)C)C2O)C(CC=O)CC(C)C(=O)C=CC(C)=CC1CN=[N+]=[N-]` (stereo not drawn) [Compound 8, 23-Deoxy-23-azido-OMT] the MIC (Escherichia coli EC14) was 32 µg/mL (≈ 51.4 µM), the MIC (Escherichia coli N10) was 32 µg/mL (≈ 51.4 µM) and the MIC [1] was greater than 128 µg/mL. For the same molecule, the MIC [2] was 4 µg/mL (≈ 6.42 µM), the MIC (Shigella sonnei N9) was 32 µg/mL (≈ 51.4 µM) and the MIC [3] was 0.25 µg/mL (≈ 0.401 µM). It also gave an MIC [4] of 0.25 µg/mL (≈ 0.401 µM), an MIC [5] of 0.125 µg/mL (≈ 0.201 µM) and an MIC [6] of 0.25 µg/mL (≈ 0.401 µM). The MIC [7] was 0.125 µg/mL (≈ 0.201 µM), the MIC [8] was 0.25 µg/mL (≈ 0.401 µM) and the MIC (Streptococcus Group 9960) was 0.5 µg/mL (≈ 0.803 µM). The MIC [9] was 0.25 µg/mL (≈ 0.401 µM), the MIC [10] was 1 µg/mL (≈ 1.61 µM) and the MIC [11] was 1 µg/mL (≈ 1.61 µM). It also gave an MIC [12] of 0.125 µg/mL (≈ 0.201 µM), an MIC [13] of 0.06 µg/mL (≈ 0.0963 µM) and an MIC [14] of 64 µg/mL (≈ 103 µM). For the same molecule, the MIC (Proteus rettgeri C24) was 32 µg/mL (≈ 51.4 µM), the MIC (Proteus rettgeri PR7) was 32 µg/mL (≈ 51.4 µM) and the MIC [15] was 64 µg/mL (≈ 103 µM). The MIC (Mycoplasma gallisepticum) was 0.39 µg/mL (≈ 0.626 µM), the MIC (Mycoplasma hyorhinis) was 3.12 µg/mL (≈ 5.01 µM) and the MIC (Mycoplasma synoviae) was 0.39 µg/mL (≈ 0.626 µM). The MIC [16] was 6.25 µg/mL (≈ 10 µM), the MIC [17] was 6.25 µg/mL (≈ 10 µM) and the MIC [18] was 6.25 µg/mL (≈ 10 µM). It also gave an MIC [19] of 1.56 µg/mL (≈ 2.5 µM), an MIC [20] of 1.56 µg/mL (≈ 2.5 µM) and an MIC [21] of 1.56 µg/mL (≈ 2.5 µM). It also gave an MIC [22] of 3.12 µg/mL (≈ 5.01 µM), an MIC [23] of 1.56 µg/mL (≈ 2.5 µM) and an MIC (Staphylococcus aureus) of no more than 0.78 µg/mL. For the same molecule, the MIC (Streptococcus sp. 80) was no more than 0.78 µg/mL, the ED50 ([24]; C203, po, read-out: ED50, Oral) was greater than 100 mg/kg and the ED50 ([24]; C203, sc, mice, subcutaneous, doses given 1 and 4 hours postinfection, read-out: ED50, Subcutaneous) was 6.3 mg/kg.
